# Data as given in patent US11407781B2, “Equatorially modified polymer linked multimers of guanosine-3′, 5′-cyclic monophosphates” (GRAYBUG VISION, INC., priority 2016, dated 2022).
# Assay: Determination of lipophilicity by RP-18 HPLC retention (log k′g)
# Type: physicochemical
# Conditions: RP-18 reversed phase HPLC, gradient elution, ion pair chromatography with triethylammonium cation
# Excerpt: Lipophilicity information is thus often only obtained by fragment analysis and corresponding calculations.
# An established HPLC method, which is based on retention data on RP-18 reversed phase silica during gradient elution, was used for the determination of lipohilicity.
# Instead of log P the method yields the descriptor log k′g, ranking analytes according to their lipophilicity on a logarithmic scale as well. Since charged molecules such as cyclic nucleotides have only hardly any retention on reversed phases, ion pair chromatography with the lipophilic triethylammonium cation is used.
smiles,measurement,value
"CC(C)c1ccc(Sc2nc3c(=O)n4cc(-c5ccccc5)[nH]c4nc3n2[C@@H]2O[C@@H]3CO[P@@](=O)(S)O[C@H]3[C@H]2O)cc1 (single isomer, unassigned) [Compound 35, 8-(4-Isopropylphenylthio)-β-phenyl-1,N^2-ethenoguanosine-3′,5′-cyclic monophosphorothioate, Rp-isomer]",log k′g,3.815
